Article PMC6271131, “Inhibitory Effects of Colocasia esculenta (L.) Schott Constituents on Aldose Reductase” (Molecules, 2014)
Values after ≈ are worked out from the molar mass of the structure shown. Values joined by “and” are separate entries in the source; they are usually repeats but may differ in a detail not shown here. Identical values can stand only once. Like-named read-outs stand apart in the source and are kept apart here.

Tests used:
[1] = ABTS^+ radical assay (antioxidant)
Experimental: The method of Re et al., [39] was used with slight modifications. ABTS diammonium salt (2 mM) and potassium persulfate (3.5 mM) were mixed, diluted in distilled water and kept in the dark at room temperature for 24 h before use. After addition of ABTS^+ solution to 10 µL of antioxidant compounds were recorded at after 10 min reaction. […] Trolox was used as positive control.

[2] = molecular target: T1, rat lens aldose reductase (rAR) (Rattus norvegicus, UniProt P07943); experiment: Rat lens aldose reductase (rAR) inhibition, DL-glyceraldehyde substrate, NADPH decrease at 340 nm; type: biochemical; settings: for IC50: Table 2 experiment
T1 construct: The rat lens homogenate was prepared according to the method of Hayman and Kinoshita with some modifications; from tissue; host or cells: lenses of Sprague-Dawley rats (homogenate supernatant)
Experimental: The rat lens homogenate was prepared according to the method of Hayman and Kinoshita with some modifications. Non-cataractous transparent lenses were pooled and homogenate was prepared in 0.1 M phosphate buffer saline (pH 6.2). After centrifugation at 10,000 rpm for 20 min in a refrigerated centrifuge, the supernatant, which was then collected and as the rAR, all procedures were carried out at 4 °C.
Each 1.0 mL cuvette contained equal units of the enzyme, 0.10 M sodium phosphate buffer (pH 6.2), 0.3 mM NADPH, with or without 10 mM of the substrate and an inhibitor [10, 36].

rat erythrocyte = experiment: Galactitol accumulation in rat erythrocytes incubated with galactose; type: cell-based; settings: 30 mM galactose; for Rat Erythrocyte Galactitol Content: 5 µg/mL compound, control 86.70 ± 1.61; for decrease of galactitol accumulation in rat erythrocyte: 5 µg/mL
Experimental: Blood sample was collected in heparin containing polypropylene tube from 10-week-old male rats. For sugar and sugar alcohol analysis, erythrocytes from heparinized blood were separated from the plasma and buffy coat by centrifuging at 2000× g for 10 min. The cells were washed thrice with normal saline (0.9% NaCl) at 4 °C. In the final washing, the cells were centrifuged at 2000× g for 10 min to obtain a consistently packed cell preparation. The packed cells (1 mL) were then incubated in a Krebs-Ringer bicarbonate buffer (pH 7.4) containing 30 mM galactose in the presence or absence of samples at 37 °C in 5% CO2 for 3 h. The erythrocytes were washed with cold saline by centrifuging at 2000× g for 10 min, precipitated by adding 6% of cold perchloric acid (3 mL), and centrifuged again at 2000× g for 10 min. The supernatant was neutralized with 2.5 M K2CO3 at 4 °C and used for galactitol determination. HPLC analysis for sugar and sugar alcohol in blood was performed with this supernatant of red blood cell homogenate after being benzoylated.

rat lenses = experiment: Galactitol accumulation in cultured isolated rat lenses (ex vivo); type: cell-based; settings: for Galactitol Content µg/lens Wet Weight (g): 5 µg/mL compound, control 250.47 ± 5.01; for inhibition at 5 µg/mL: Rattus norvegicus, 144 h, read-out: inhibition of galactitol accumulation in isolated rat lenses; for effect on polyol accumulation in rat lenses: conclusion statement
Experimental: Lenses isolated from 10-week-old male rats were cultured for 6 days in TC-199 medium that contained 15% fetal bovine serum 100 units/mL penicillin and 0.1 mg/mL streptomycin under sterile conditions in an atmosphere of 5% CO2 and 95% air at 37 °C. Samples were dissolved in dimethyl sulfoxide. The lenses were divided into five groups and cultured in medium containing 5 mM glucose, 30 mM galactose and rosmarinic acid or caffeic acid ethylene ester. Each lens was placed in well containing 1.0 mL of medium. Galactitol was determined by HPLC after its derivatization by reaction with benzoic acid to a fluorescent compound [37].

[3] = molecular target: T2, recombinant human aldose reductase (rhAR) (Homo sapiens, UniProt P15121); experiment: Kinetic analysis of aldose reductase inhibition (Lineweaver-Burk plots); type: biochemical; settings: for type of inhibition: Lineweaver-Burk plots, Km unchanged, Vmax decreased; for Ki: from secondary Lineweaver-Burk plots, DL-glyceraldehyde 0.1-1 mM, read-out: inhibitory constant (Ki)
T2 construct: purchased Wako Pure Chemical Industries (Osaka, Japan)
Experimental: Reaction mixtures consisted of 0.1 M potassium phosphate, 0.16 mM NADPH, […] of recombinant human aldose reductase (rhAR) with varied concentrations of substrate DL-glyceraldehyde and AR inhibitor in a total volume of 200 µL. Concentrations were ranged from 0.1 to 1 mM for DL-glyceraldehyde, from 0.1 to 1 mM for active compound. Recombinant human aldose reductase activity was assayed spectrophotometrically by measuring the decrease in absorption of NADPH at 340 nm after substrate addition using a Bio Tek Power Wave XS spectrophotometer (Bio Tek Instruments, Winooski, VT, USA).

[4] = Table 1, read-out: Aldose Reductase Inhibition (%)
[5] = Table 2, read-out: Inhibition (%) of rAR
[6] = 5 µg/mL, 30 mM galactose, 6 days
[7] = read-out: IC50 (rAR), isolated constituents (converted)

Row | SMILES | IC50 ([1]; Table 5) | IC50 (ABTS^+) ([1]; Table 5) | IC50 [2, 7] | inhibition at 10 µg/mL ([2]; Table 2) | Inhibition (%) of ABTS^+ ([1]; Table 5, 16.67 µg/mL) | Inhibition (%) of ABTS^+ ([1]; Table 5, 3.33 µg/mL) | Inhibition (%) of ABTS^+ ([1]; Table 5, 8.33 µg/mL) | inhibition at 0.5 µg/mL [2, 5] | inhibition at 1 µg/mL [2, 5] | inhibition at 5 µg/mL ([2]; Table 2) | Inhibition (%) of ABTS^+ ([1]; Table 5, 1.67 µg/mL) | other results
1 | Cc1c(C)c2c(c(C)c1O)CCC(C)(C(=O)O)O2 (stereo not drawn) [Trolox, reference compound] | – | – | – | – | – | – | – | – | – | – | – | IC50 ([1]; Table 4): 11.49 ± 0.04 µM; IC50 (ABTS^+) ([1]; Table 4): 2.87 ± 0.01 µg/mL (≈ 11.5 µM); Inhibition (%) of ABTS^+ ([1]; Table 4, 1.67 µg/mL): 27.07 ± 1.15%; Inhibition (%) of ABTS^+ ([1]; Table 4, 3.33 µg/mL): 57.40 ± 2.03%; Inhibition (%) of ABTS^+ ([1]; Table 4, 8.33 µg/mL): 92.92 ± 0.06%
2 | N[C@@H](Cc1c[nH]c2ccccc12)C(=O)O [Compound 1, tryptophan] | – | – | – | 20 ± 2.01% | 37.51 ± 2.93% | – | – | – | – | – | – | –
3 | O=c1c(O)c(-c2ccc(O)c(O)c2)oc2cc(O)cc(O)c12 [Quercetin, quercetin, reference compound] | – | – | – | – | – | – | – | 26.3 ± 0.59% | 48.6 ± 1.44% | 81.14 ± 0.81% | – | inhibition at 0.5 µg/mL [2, 4]: 31.62 ± 0.09%; inhibition at 1 µg/mL [2, 4]: 48.9 ± 0.51%; inhibition at 2.5 µg/mL [2, 4]: 69.6 ± 0.72%; IC50 ([1]; Table 4): 3.2 ± 0.12 µM; IC50 (ABTS^+) ([1]; Table 4): 0.97 ± 0.04 µg/mL (≈ 3.21 µM); Inhibition (%) of ABTS^+ ([1]; Table 4, 0.33 µg/mL): 22.98 ± 3.55%; Inhibition (%) of ABTS^+ ([1]; Table 4, 0.83 µg/mL): 42.49 ± 3.39%; Inhibition (%) of ABTS^+ ([1]; Table 4, 1.67 µg/mL): 81.36 ± 1.75%; Rat Erythrocyte Galactitol Content (rat erythrocyte): 45.17 ± 0.81 µM; decrease of galactitol accumulation in rat erythrocyte (rat erythrocyte): 47.9%; Galactitol Content µg/lens Wet Weight (g) (rat lenses; 30 mM galactose, 6 days): 241.07 ± 4.57 µg/lens Wet Weight (g); inhibition at 5 µg/mL (rat lenses; [6]): 3.8%
4 | O=c1cc(-c2ccc(O)cc2)oc2c([C@@H]3O[C@H](CO)[C@@H](O)[C@H](O)[C@H]3O)c(O)cc(O)c12 [Compound 4, vitexin] | – | – | – | 48.5 ± 0.87% | 46.17 ± 2.65% | – | – | – | – | – | – | –
5 | O=c1cc(-c2ccc(O)c(O)c2)oc2c([C@@H]3O[C@H](CO)[C@@H](O)[C@H](O)[C@H]3O)c(O)cc(O)c12 [Compound 2, orientin] | 12.5 ± 0.95 µM | 5.59 ± 0.42 µg/mL (≈ 12.5 µM) | 1.65 µM | – | – | 31.76 ± 3.19% | 72.55 ± 4.10% | 35.3 ± 0.36% | 64.57 ± 0.52% | 94 ± 0.98% | 17.56 ± 2.21% | type of inhibition [3]: noncompetitive inhibitors; Ki [3]: 3.23 µM; Rat Erythrocyte Galactitol Content (rat erythrocyte): 72.72 ± 0.98 µM; decrease of galactitol accumulation in rat erythrocyte (rat erythrocyte): 16.1%; Galactitol Content µg/lens Wet Weight (g) (rat lenses; 30 mM galactose, 6 days): 227.89 ± 4.52 µg/lens Wet Weight (g); inhibition at 5 µg/mL (rat lenses): 9.1%; effect on polyol accumulation in rat lenses (rat lenses): prevented the accumulation of sorbitol in rat lenses
6 | O=c1cc(-c2ccc(O)c(O)c2)oc2cc(O)c([C@@H]3O[C@H](CO)[C@@H](O)[C@H](O)[C@H]3O)c(O)c12 [Compound 3, isoorientin] | 14.6 ± 1.18 µM | 6.53 ± 0.53 µg/mL (≈ 14.6 µM) | – | – | – | 31.69 ± 4.94% | 60.92 ± 2.81% | 37.23 ± 0.37% | 57.6 ± 0.58% | 77.73 ± 0.77% | 17.87 ± 3.08% | type of inhibition [3]: noncompetitive inhibitors; Ki [3]: 5.88 µM; IC50 ([2]; IC50 (rAR), isolated constituents): 1.92 µM; Rat Erythrocyte Galactitol Content (rat erythrocyte): 56.18 ± 1.00 µM; decrease of galactitol accumulation in rat erythrocyte (rat erythrocyte): 35.2%; Galactitol Content µg/lens Wet Weight (g) (rat lenses; 30 mM galactose, 6 days): 243.14 ± 4.71 µg/lens Wet Weight (g); inhibition at 5 µg/mL (rat lenses; [6]): 2.7%; effect on polyol accumulation in rat lenses (rat lenses): prevented the accumulation of sorbitol in rat lenses
7 | C[C@@H]1O[C@@H](OC[C@H]2O[C@@H](Oc3cc(O)c4c(=O)cc(-c5ccc(O)c(O)c5)oc4c3)[C@H](O)[C@@H](O)[C@@H]2O)[C@H](O)[C@H](O)[C@H]1O [Compound 7, luteolin-7-O-rutinoside] | 15.8 ± 0.8 µM | 9.38 ± 0.47 µg/mL (≈ 15.8 µM) | 2.59 µM | – | 79.82 ± 0.67% | 21.44 ± 1.46% | 49.55 ± 3.91% | 29.9 ± 0.3% | 40.31 ± 0.4% | 72.7 ± 0.73% | – | –
8 | O=c1cc(-c2ccc(O)cc2)oc2cc(O)c([C@@H]3O[C@H](CO)[C@@H](O)[C@H](O)[C@H]3O)c(O)c12 [Compound 5, isovitexin] | – | – | 7.35 µM and 7.36 µM | 76.59 ± 0.74% | 44.40 ± 4.91% | – | – | – | 23.3 ± 0.25% | 60.3 ± 0.61% | – | –
9 | O=c1cc(-c2ccc(O)c(O)c2)oc2cc(O[C@@H]3O[C@H](CO)[C@@H](O)[C@H](O)[C@H]3O)cc(O)c12 [Compound 6, luteolin-7-O-glucoside] | 17.8 ± 1.51 µM | 8.00 ± 0.68 µg/mL (≈ 17.8 µM) | 7.47 µM | 76.2 ± 0.77% | – | 22.66 ± 2.47% | 52.11 ± 3.98% | – | 19.1 ± 0.21% | 61.88 ± 0.6% | 13.49 ± 1.09% | –

The next lines start with results.

Row | IC50 ([1]; Table 5) | IC50 (ABTS^+) ([1]; Table 5) | IC50 [2, 7] | SMILES | inhibition at 10 µg/mL ([2]; Table 2) | Inhibition (%) of ABTS^+ ([1]; Table 5, 16.67 µg/mL) | Inhibition (%) of ABTS^+ ([1]; Table 5, 3.33 µg/mL) | Inhibition (%) of ABTS^+ ([1]; Table 5, 8.33 µg/mL) | inhibition at 0.5 µg/mL [2, 5] | inhibition at 1 µg/mL [2, 5] | inhibition at 5 µg/mL ([2]; Table 2) | Inhibition (%) of ABTS^+ ([1]; Table 5, 1.67 µg/mL) | other results
10 | 37.4 ± 0.64 µM | 13.31 ± 0.23 µg/mL (≈ 37.4 µM) | – | COc1cc(C=CC(=O)OC2OC(CO)C(O)C(O)C2O)ccc1O [Compound 9, 1-O-feruloyl-D-glucoside] | 4.06 ± 0.4% | 59.10 ± 2.55% | 13.51 ± 1.62% | 35.36 ± 1.54% | – | – | – | – | –
11 | 23.5 ± 1.43 µM | 8.04 ± 0.49 µg/mL (≈ 23.5 µM) | 14.1 µM | O=C(C=Cc1ccc(O)c(O)c1)OC1OC(CO)C(O)C(O)C1O [Compound 10, 1-O-caffeoyl-D-glucoside] | 73.2 ± 0.99% | – | 29.84 ± 1.19% | 50.87 ± 1.30% | – | – | 55.6 ± 0.78% | 14.07 ± 0.39% | inhibition at 2.5 µg/mL [2, 5]: 24.7 ± 0.36%
12 | 19.2 ± 1.69 µM | 6.91 ± 0.61 µg/mL (≈ 19.2 µM) | – | O=C(/C=C/c1ccc(O)c(O)c1)O[C@H](Cc1ccc(O)c(O)c1)C(=O)O [Compound 8, rosmarinic acid] | – | – | 23.61 ± 2.27% | 60.25 ± 4.66% | 18.3 ± 0.19% | 62.79 ± 0.6% | 87.33 ± 0.87% | 16.20 ± 3.85% | –
